From PMC5833849, “Sensitizing tumor cells to conventional drugs: HSP70 chaperone inhibitors, their selection and application in cancer models” (Cell Death & Disease, 2018)
Where two headings read alike, the source gives them in different places.

How the values were obtained:
Hsp70 [1] = biological target: T1, Hsp70 (Homo sapiens, UniProt P0DMV8); test: microscale thermophoresis (also DARTS; inhibition of substrate binding and luciferase refolding by Hsp70)
T1 construct: gene HSPA1A; Recombinant human Hsp70

Hsp70 [2] = biological target: T1, Hsp70; test: inhibition of Hsp70 binding to carboxymethylated lactalbumin ([…] at […]); luciferase refolding ([…] at […]); format: biochemical
Hsp70 [3] = biological target: T1, Hsp70; test: as above; format: biochemical; remark: listed apart in the source

T1 sequence (P0DMV8 2-641): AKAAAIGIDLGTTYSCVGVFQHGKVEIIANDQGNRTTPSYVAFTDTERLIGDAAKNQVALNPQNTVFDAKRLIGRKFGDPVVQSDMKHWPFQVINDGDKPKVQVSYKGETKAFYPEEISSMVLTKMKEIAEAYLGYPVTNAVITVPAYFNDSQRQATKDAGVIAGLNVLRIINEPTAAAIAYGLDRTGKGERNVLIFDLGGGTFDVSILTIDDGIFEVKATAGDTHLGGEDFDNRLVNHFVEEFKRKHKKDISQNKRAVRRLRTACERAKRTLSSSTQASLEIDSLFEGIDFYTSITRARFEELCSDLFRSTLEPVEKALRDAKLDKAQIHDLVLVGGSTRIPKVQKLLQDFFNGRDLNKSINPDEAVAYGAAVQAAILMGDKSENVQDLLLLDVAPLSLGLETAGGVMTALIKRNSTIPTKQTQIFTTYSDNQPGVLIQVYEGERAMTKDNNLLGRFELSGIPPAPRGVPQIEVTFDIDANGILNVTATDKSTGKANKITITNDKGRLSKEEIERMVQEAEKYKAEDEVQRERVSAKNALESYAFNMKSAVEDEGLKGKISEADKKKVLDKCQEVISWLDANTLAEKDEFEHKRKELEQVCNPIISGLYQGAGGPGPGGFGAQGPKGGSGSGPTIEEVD

## COc1cc2c(c(OC)c1OC)-c1ccc(NCCN)c(=O)cc1[C@@H](NC(C)=O)CC2 [AEAC]
Hsp70 [1]
  Kd: 149 ± 49.6 nM

## N#Cc1ccc(COC[C@H]2O[C@@H](n3c(NCc4ccc(Cl)c(Cl)c4)nc4c(N)ncnc43)[C@H](O)[C@@H]2O)cc1 [VER-155008]
Hsp70 [2]
  inhibition at 1 µM: 19%

## CCn1c(=Cc2cccc[n+]2CC)sc(=C2Sc3ccccc3N2C)c1=O [MKT-077]
Hsp70 [3]
  inhibition at 1 µM: 27%
